Results as given in patent US5441950A, “Substituted dibenzoxazepine and dibenzthiazepine carbamate compounds, pharmaceutical compositions and methods of use” (G. D. Searle & Co., priority 1994, dated 1995).
Structures can show the parent of a compound that is named as a salt. Where two headings read alike, the source gives them in different places.

Tests used:
[1] = biological target: T1, prostaglandin E2 -induced contractions of segments of guinea pig ileum (Cavia porcellus, UniProt A0A286XHJ6); assay: Prostaglandin (PGE) Antagonism Assay (prostaglandin E2-induced contractions of guinea pig ileum segments); conditions: for PGE in guinea pig ileum, dose ratio: dose ratio of prostaglandin E2 EC50 doses, initial test concentration 3 micromolar
T1 construct: The ilea were then quickly removed from the guinea pigs; from tissue; host or cells: guinea pig ileum segments (male albino guinea pigs)
T1 sequence (A0A286XHJ6 1-405): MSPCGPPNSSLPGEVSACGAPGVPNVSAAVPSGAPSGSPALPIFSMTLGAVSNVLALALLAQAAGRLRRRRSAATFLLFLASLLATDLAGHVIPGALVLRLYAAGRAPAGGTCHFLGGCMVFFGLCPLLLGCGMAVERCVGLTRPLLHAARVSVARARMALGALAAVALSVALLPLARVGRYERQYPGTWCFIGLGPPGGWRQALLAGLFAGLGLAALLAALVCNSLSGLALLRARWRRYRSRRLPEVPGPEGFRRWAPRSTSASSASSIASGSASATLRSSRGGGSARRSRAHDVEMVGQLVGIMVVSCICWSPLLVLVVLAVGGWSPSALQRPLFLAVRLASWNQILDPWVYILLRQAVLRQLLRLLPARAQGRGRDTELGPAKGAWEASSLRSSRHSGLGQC
Description: The ilea were then quickly removed from the guinea pigs and placed in a modified Tyrode solution, a solution which is known to those skilled in the art, containing one-half of the usual amount of magnesium ions. […] Data for a control prostaglandin E2 dose response curve plotting concentration of prostaglandin E2 versus the intensity of contractions, detected isotonically, was then obtained by experimentally adjusting the dose of the prostaglandin E2 being injected into the tissue bath, in a manner known by those of skill in the art. Solutions or suspensions containing an initial concentration (3 micromolar) of a test compound in modified Tyrode solution ("test solutions/suspensions") were then separately substituted for the control bath solution. Each test solution/suspension was then kept in constant contact with the ileum tissue, except for brief periods to drain the bath in preparation for rinsing with fresh test solution/suspension. A second prostaglandin E2 dose response curve was then generated for prostaglandin E2 in the presence of a test compound. A dose ratio of EC50 doses was then calculated from the results of each test in a manner known by those of skill in the art.

mice = assay: Writhing Assay (PBQ-induced writhing, analgesia, intragastric); type: in vivo, mouse (Charles River male albino mice); conditions: for responders at 30 mg/kg: ip, 0.5 h, read-out: WRITHING ASSAY, number of mice out of nine or ten in which the test compound produced analgesia
Description: The Writhing Assay is one of the most widely-used experimental procedures for measuring the analgesic activity of different narcotic and nonnarcotic analgesic agents, and involves the continuous, chemically-induced pain of visceral origin to an animal, such as a mouse or rat. [Gyires et al., Arch. int. […] Chemicals which may be used to induce this pain include phenylbenzoquinone (PBQ) and acetic acid. As a result of the chemical irritation to the animal, a characteristic stretching and writhing of the animal (dorsiflexion of the animal's back, extension of its hindlimbs and the strong contraction of its abdominal musculature) will generally occur. […] Drugs which reduce the number of writhes of the animal appear to restore the normal nociceptive threshold of the animal. […] Charles River male albino mice, weighing 20 to 30 grams, were used in this assay. […] Ten mice which were given saline in place of a test compound of the invention were used as a control group. Five minutes later, each mouse was individually placed into a glass beaker for observation, and the number of writhes occurring during the following ten-minute period was counted. […] The standard initial screening dose of a test compound employed in this assay was 30 mpk […].

[2] = Mus musculus, 30 mg per kilogram, I.G., 30 min before PBQ i.p., writhes <= one-half the control median

Row | Compound | PGE in guinea pig ileum, dose ratio [1] | responders at 30 mg/kg (mice; [2]) | other results
1 | C[C@@H](NC(=O)N1Cc2ccccc2Oc2ccc(Cl)cc21)C(=O)O [Example 33, (D)-2R-[[(8-chlorodibenz[b,f][1,4]oxazepine-10(11H)yl)carbonyl]amino]propanoic acid] | 2.0 | 60% | 
2 | O=C(OCc1ccccc1)N1Cc2ccccc2Oc2ccc(Cl)cc21 [Example 43, phenylmethyl 8-chlorodibenz[b,f][1,4]oxazepine-10(11H)-carboxylate] | 0.3 |  | 
3 | O=C(NCc1ccncc1)N1Cc2ccccc2Oc2ccc(Cl)cc21 [Example 45, 8-chloro-N-(4-pyridinylmethyl)dibenz[b,f][1,4]oxazepine-10(11H)carboxamide,monohydrochloride] | 1.0 | 60% | 
4 | CC(C)(CNC(=O)c1ccncc1)NC(=O)N1Cc2ccccc2Oc2ccc(Cl)cc21 [Example 28, 8-chloro-N-[2-[[(4-pyridinyl)carbonyl]amino-1,1-dimethylethyl]dibenz[b,f][1,4]oxazepine-10(11H)carboxamide, hydrochloride hydrate] | 2.0 | 20% | 
5 | O=C(NCCCCc1ccncc1)N1Cc2ccccc2Oc2ccc(Cl)cc21 [Example 24, 8-chloro-N-[4-(4-pyridinyl)butyl]dibenz[b,f][1,4]oxazepine-10(11H)-carboxamide] | 7.9 | 60% | 
6 | O=C(OCc1ccncc1)N1Cc2ccccc2Oc2ccc(Cl)cc21 [Example 44, (4-pyridinyl)methyl 8-chlorodibenz[b,f][1,4]oxazepine-10(11H)-carboxylate] | 365 |  | 
7 | COC(=O)[C@H](C)NC(=O)N1Cc2ccccc2Oc2ccc(Cl)cc21 [Example 32, methyl (L)-2R-[[(8-chlorodibenz[b,f][1,4]oxazepine-10-(11H)-yl)carbonyl]amino]propanoate] | 3.5 |  | ED50 (mice; Mus musculus, po, I.G., mice, PBQ, read-out: WRITHING ASSAY, ED50 Dose): 7.2 mg/kg
8 | O=C(CNC(=O)N1Cc2ccccc2Oc2ccc(Cl)cc21)Nc1ccncc1 [Example 16, 8-chloro-N-[[[(4-pyridinyl)amino]carbonyl]methyl]dibenz[b,f][1,4]oxazepine-10(11H)carboxamide, monohydrochloride] | 1.70 | 80% | 
9 | CN(C)Cc1ccc(COC(=O)N2Cc3ccccc3Oc3ccc(Cl)cc32)o1 [Example 12, [2-(dimethylaminomethyl)furan-5-yl]methyl-8-chlorodibenz[b,f][1,4]oxazepine-10(11H)carboxylate, monohydrochloride] |  | 20% | 
10 | O=C(NCc1cccnc1)N1Cc2ccccc2Oc2ccc(Cl)cc21 [Example 46, 8-chloro-N-(3-pyridinylmethyl)dibenz[b,f]oxazepine-10(11H)-carboxamide, monohydrochloride] | 2.7 | 40% | 
11 | CC(C)(CNC(=O)OCc1ccccc1)NC(=O)N1Cc2ccccc2Oc2ccc(Cl)cc21 [Example 18, phenylmethyl N-[2-[[(8-chlorodibenz[b,f][1,4]oxazepine-10(11H)-yl]carbonyl]amino]-2-methylpropyl]carbamate] | 2.6 | 40% | 
12 | Cl.O=C(CNC(=O)N1Cc2ccccc2Oc2ccc(Cl)cc21)NCCc1ccccn1 [Example 8, 8-chloro-N-[[[[2-(2-pyridinyl)ethyl]amino]carbonyl]methyl]-10(11H) dibenz[b,f][1,4]oxazepinecarboxamide hydrochloride] | 11.02 | 30% | 
13 | C[C@H](NC(=O)N1Cc2ccccc2Oc2ccc(Cl)cc21)C(=O)O [Example 34, (L)-2S-[[(8-chlorodibenz[b,f][1,4]oxazepine-10(11H)yl)carbonyl]amino]propanoic acid] | 1.7 | 20% | 
14 | O=C(NCc1ccccn1)N1Cc2ccccc2Oc2ccc(Cl)cc21 [Example 47, 8-chloro-N-(2-pyridinylmethyl)dibenz[b,f][1,4]oxazepine-10(11H)-carboxamide, monohydrochloride] |  | 80% | 
15 | O=C(CNC(=O)N1Cc2ccccc2Oc2ccc(Cl)cc21)NCc1ccncc1 [Example 6, 8-chloro-N-[[[(4-pyridinylmethyl)amino]carbonyl]methyl]-10(11H)-dibenz[b,f][1,4]oxazepinecarboxamide, hydrochloride] |  | 60% | Kb ([1]; Schild plot, prostaglandin E2-induced contractions, read-out: PGE in guinea pig ileum, pA2 (converted)): 955 nM
16 | CCN(CC)CCCCCOC(=O)N1Cc2ccccc2Oc2ccc(Cl)cc21 [Example 29, 5-(diethylamino)pentyl 8-chlorodibenz[b,f][1,4]oxazepine-10(11H)-carboxylate] |  | 70% | potency in the Writhing Assay (in words) (mice; mice, I.G.): most potent compound of the invention tested in this assay
17 | O.O=C(NCc1nn[nH]n1)N1Cc2ccccc2Oc2ccc(Cl)cc21.[Na] [Example 20, 8-chloro-N-[(2H-tetrazol-5-yl)methyl]dibenz[b,f][1,4]oxazepine-10(11H)-carboxamide, sodium salt, hydrate] | 1.80 |  | responders at 30 mg/kg (mice; Mus musculus): 20%
18 | O=C(OCCCc1ccncc1)N1Cc2ccccc2Oc2ccc(Cl)cc21 [Example 10, 3-(4-pyridinyl)propyl 8-chloro-10(11H)dibenz[b,f][1,4]oxazepinecarboxylate,monohydrochloride] | 2.63 | 30% | 
19 | O=C(OCCCNCc1ccncc1)N1Cc2ccccc2Oc2ccc(Cl)cc21 [Example 14, 3-[[(4-pyridinyl)methyl]amino]propyl-8-chlorodibenz[b, f][1,4]oxazepine-10(11H)carboxylate, hydrochloride] | 25.03 | 50% | 
20 | COC(=O)[C@@H](C)NC(=O)N1Cc2ccccc2Oc2ccc(Cl)cc21 [Example 31, methyl (D)-2R-[[(8-chlorodibenz[b,f][1,4]oxazepine-10(11H)-yl)carbonyl]amino]propanoate] | 1.4 | 80% | 
